The numbers were not newly measured in patent publication US20160318862A1, “SYNTHESIS OF DELTA 12-PGJ3 AND RELATED COMPOUNDS” (WILLIAM MARSH RICE UNIVERSITY, priority 2013, published 2016), which cites them from elsewhere.

Structures are written as SMILES. Like-named read-outs stand apart in the source and are kept apart here.

For data set [1], the target named is T1, peroxisome proliferator-activated receptor γ (PPARγ) (Homo sapiens, UniProt P37231).
T1 sequence (P37231 1-505): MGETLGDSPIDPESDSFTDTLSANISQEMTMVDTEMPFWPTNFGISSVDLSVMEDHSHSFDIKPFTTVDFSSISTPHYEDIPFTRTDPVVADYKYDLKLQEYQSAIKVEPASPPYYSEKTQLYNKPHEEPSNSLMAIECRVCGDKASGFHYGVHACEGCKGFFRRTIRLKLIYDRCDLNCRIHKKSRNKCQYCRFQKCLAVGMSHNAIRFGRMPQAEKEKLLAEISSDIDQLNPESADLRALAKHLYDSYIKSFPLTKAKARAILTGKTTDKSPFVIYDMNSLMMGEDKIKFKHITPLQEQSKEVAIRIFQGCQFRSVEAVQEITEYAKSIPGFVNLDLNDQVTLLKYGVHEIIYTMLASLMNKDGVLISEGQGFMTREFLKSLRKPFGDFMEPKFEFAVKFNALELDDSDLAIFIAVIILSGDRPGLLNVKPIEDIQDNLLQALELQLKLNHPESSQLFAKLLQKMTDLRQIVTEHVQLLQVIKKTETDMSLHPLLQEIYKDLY

Data set [2] relates to normal hematopoietic stem cells.
In data set [3] the test system is NF-κB-mediated transcription.
In data set [4] the test system is gadd45 promoter.
Data set [5] has as its system tumor cells. As to conditions: incorporating into tumor cells and transferring into nuclei.
The subject of data set [6] is topoisomerase.
In data set [7] the test system is p53. As to conditions: LSCs and leukemia cells.
Data set [8] deals with mice infected with Friend erythroleukemia virus or those expressing chronic myelogenous leukemia (CML) oncoprotein BCR-abl in the hematopoietic stem cell (HSC) ….
Data set [9] relates to leukemia stem cells (LSCs).
For data set [10], the system named is AML LSCs. As to conditions: murine models of AML; reported in U.S. Patent Publication 2013/0005737.
For data set [11], the system named is AML LSCs. As to conditions: human AML leukemia samples; reported in U.S. Patent Publication 2013/0005737.

Turning to `CCCCC/C=C/C=C1/C(=O)C=C[C@@H]1C/C=C\CCCC(=O)O` [15-deoxy-Δ^12,14-PGJ2], in data set [1], the “ligand potency for PPARγ” value is “most potent natural ligand reported to date”.
With `CC/C=C\C[C@H](O)/C=C/[C@H]1C(=O)C=C[C@@H]1C/C=C\CCCC(=O)O` [PGJ3], the “effect on normal hematopoietic stem cells or the differentiation of hematopoietic progenitors” value in data set [2] is on record as “no effect”.
For the molecule `O=C(O)CCCC=CCC1C=CC(=O)C1=CCC(O)CC=CCC(F)(F)F` (stereo not shown) [compound 3, ω-Trifluoromethyl-Δ^12-PGJ3], the NF-κB-mediated transcription entry in data set [3] was “Inhibition of the NF-κB-mediated transcription”.
Take `CCCCC[C@H](O)C/C=C1/C(=O)C=C[C@@H]1C/C=C\CCCC(=O)O` [Δ^12-PGJ2]: in [4], the gadd45 promoter activity entry is recorded as “activating the gadd45 promoter independently of p53”. In addition, in data set [5], the antitumor effects result is “strong antitumor effects”. Also, the topoisomerase activity result in [6] is on record as “inhibiting topoisomerase”.
For `CC/C=C\C[C@H](O)C/C=C1/C(=O)C=C[C@@H]1C/C=C\CCCC(=O)O` [Δ^12-PGJ3], the “expression of p53” value in [7] was “inducing the expression of p53”. Moreover, the “hematological parameters, splenic histology and survival” value in [8] (intraperitoneal administration) was “completely restored normal hematological parameters, splenic histology, and enhanced the survival”. Also, the development of leukemia entry in [8] (two murine models of leukemia) is listed as “alleviates the development of leukemia”. Further, the “eradication of LSCs” value in data set [9] (in vivo, donor cells from treated mice unable to cause leukemia in secondary transplants) is listed as “completely eradicated LSCs in vivo”. Moreover, the “apoptosis of leukemia stem cells” value in data set [9] (mice spleen and bone marrow) is “selectively targets and induces apoptosis of leukemia stem cells”. The “targeting of AML LSCs by inducing apoptosis” value in data set [10] and in [11] was “effectively target AML LSCs by inducing apoptosis” each time.
